Source: US20130029923A1, “Materials and Methods for Prevention and Treatment of Viral Infections” (priority 2009, published 2013)

How the values were obtained:
[1] = test system: influenza virus H1N1 (A/HK/54/98), oseltamivir-sensitive strain; format: cell-based, human influenza virus
[2] = test system: influenza M1 protein, H9N2/G1 (A/Quail/HK/G1/97); format: cell-based, human influenza virus
[3] = test system: influenza virus H9N2/G1 (A/Quail/HK/G1/97); format: cell-based, human influenza virus
[4] = test system: influenza virus H3N2 (A/H3N2/1174/99); format: cell-based, human influenza virus
[5] = test system: influenza virus H9N2 (A/Quail/HK/G1/97); format: cell-based, human influenza virus
[6] = test system: human influenza viruses H1N1 (A/HK/54/98), H9N2 (A/Quail/HK/G1/97), H3N2 (A/H3N2/1174/99); format: cell-based, human influenza virus
[7] = test system: influenza virus H9N2/G1 (A/Quail/HK/G1/97); format: cell-based, human influenza virus; remark: listed apart in the source
prostaglandin E2 (PGE2) = format: cell-based, human

CCOC(=O)C1=C[C@@H](OC(CC)CC)[C@H](NC(C)=O)[C@@H](N)C1 [Tamiflu, oseltamivir, reference compound]
suppression of virus (TCID50) compared with diluent (PBS)-treated cells [1]: more than 30 folds

C[C@@H]1O[C@@H](OC[C@H]2O[C@@H](OCCc3ccc(O)c(O)c3)[C@H](O)[C@@H](O)[C@@H]2OC(=O)/C=C/c2ccc(O)c(O)c2)[C@H](O)[C@H](O)[C@H]1O [Compound A1, forsythoside A]
M1 protein expression level compared to DMSO [2]: lower
relative intensity of M1 (normalized to actin) [2]: 0.39
relative intensity of M1, DMSO-treated over treated cells [2]: more than four fold
virion budding, ultrastructure [3]: slowed or abnormal budding process
suppression of virus replication (TCID50) compared with DMSO-treated cells [1]: about 15 fold
suppression of virus replication (TCID50) compared with DMSO-treated cells [4]: ~12 fold
Cytotoxicity index (MDCK cells): 1.02
cytotoxicity on MDCK cells (MDCK cells; 100 ug/ml, 48 hours): does not exhibit significant cytotoxicity
suppression of virus replication (TCID50) compared with DMSO-treated cells [5]: ~24 fold
anti-influenza virus effects in primary human blood macrophages [6]: possesses anti-influenza virus effects
increase of cells expressing viral proteins from 6 h.p.i. to 10 h.p.i. [7]: about 15%
percentages of cells expressing viral proteins vs DMSO at 6 h.p.i. [7]: no significant difference

COC(=O)CC1(O)C=CC(=O)C=C1 [Compound D1, jacaranone]
PGE2 levels in H9N2/G1-infected macrophages (prostaglandin E2 (PGE2)): suppresses PGE2 levels in a dose-dependent manner
PGE2 levels in non-infected macrophages (prostaglandin E2 (PGE2)): does not cause any changes in PGE2 levels
